What all share (settings): Membrane
Test [1] addresses Delta-type opioid receptor (Homo sapiens) (UniProt P41143). In words: Displacement of [3H]-DPDPE from human delta opioid receptor expressed in CHO-K1 cell membranes at 10 uM incubated for 60 mins by TopCount scintillation counting method relative to control. (In general: Displacement assays read how much labelled ligand stays bound in the presence of the test substance.)
For test [2], the target named is Cannabinoid receptor 2 (Homo sapiens) (UniProt P34972). The experiment in a line: Displacement of [3H]-CP-55,940 from full-length recombinant human CB2R expressed in CHO-K1 cell membranes at 10 uM incubated for 90 mins by TopCount scintillation counting method relative to control.
Chain of Cannabinoid receptor 2 (Homo sapiens) (P34972 whole entry): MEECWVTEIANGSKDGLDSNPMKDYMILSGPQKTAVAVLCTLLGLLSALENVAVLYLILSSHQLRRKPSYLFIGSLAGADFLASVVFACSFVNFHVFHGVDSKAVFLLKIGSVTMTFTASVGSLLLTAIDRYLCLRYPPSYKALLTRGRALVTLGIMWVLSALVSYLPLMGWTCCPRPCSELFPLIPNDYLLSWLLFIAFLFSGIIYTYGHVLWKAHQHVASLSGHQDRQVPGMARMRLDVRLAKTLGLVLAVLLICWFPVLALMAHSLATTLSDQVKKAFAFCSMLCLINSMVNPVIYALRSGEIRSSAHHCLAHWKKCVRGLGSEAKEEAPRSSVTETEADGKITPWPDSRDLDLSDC
The target of test [3] is Cannabinoid receptor 1 (Homo sapiens) (UniProt P21554). The experiment in a line: Displacement of [3H]-CP-55,940 from full-length recombinant human CB1R expressed in CHO-K1 cell membranes at 10 uM incubated for 90 mins by TopCount scintillation counting method relative to control.
Chain of Cannabinoid receptor 1 (Homo sapiens) (P21554 whole entry): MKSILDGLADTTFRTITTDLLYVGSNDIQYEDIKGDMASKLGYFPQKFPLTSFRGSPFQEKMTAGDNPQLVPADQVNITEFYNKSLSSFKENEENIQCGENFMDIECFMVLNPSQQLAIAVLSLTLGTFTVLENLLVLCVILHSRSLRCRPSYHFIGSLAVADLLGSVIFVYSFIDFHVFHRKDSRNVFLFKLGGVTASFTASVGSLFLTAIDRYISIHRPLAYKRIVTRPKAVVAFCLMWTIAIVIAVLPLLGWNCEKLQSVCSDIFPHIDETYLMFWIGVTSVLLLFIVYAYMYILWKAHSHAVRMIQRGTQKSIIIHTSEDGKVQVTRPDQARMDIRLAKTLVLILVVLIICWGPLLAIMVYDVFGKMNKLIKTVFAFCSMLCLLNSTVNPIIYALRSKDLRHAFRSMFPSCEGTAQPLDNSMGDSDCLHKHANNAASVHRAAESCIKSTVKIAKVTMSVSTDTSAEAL
The target in test [4] is Kappa-type opioid receptor (Homo sapiens) (UniProt P41145). In words: Displacement of [3H]-U69593 from human kappa opioid receptor expressed in CHO-K1 cell membranes at 10 uM incubated for 60 mins by TopCount scintillation counting method relative to control.
Chain of Kappa-type opioid receptor (Homo sapiens) (P41145 whole entry): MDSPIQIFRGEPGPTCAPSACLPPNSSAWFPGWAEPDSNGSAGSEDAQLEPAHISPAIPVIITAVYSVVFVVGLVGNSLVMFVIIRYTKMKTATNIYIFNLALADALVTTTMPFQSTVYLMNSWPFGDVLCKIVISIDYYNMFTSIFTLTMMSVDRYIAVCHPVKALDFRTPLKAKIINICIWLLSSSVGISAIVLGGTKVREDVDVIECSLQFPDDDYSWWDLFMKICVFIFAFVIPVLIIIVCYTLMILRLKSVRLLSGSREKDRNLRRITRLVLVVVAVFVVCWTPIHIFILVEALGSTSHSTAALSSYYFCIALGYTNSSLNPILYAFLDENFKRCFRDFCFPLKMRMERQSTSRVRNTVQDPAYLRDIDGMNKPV
The target of test [5] is Mu-type opioid receptor (Homo sapiens) (UniProt P35372). The experiment in a line: Displacement of [3H]-DAMGO from human mu opioid receptor expressed in CHO-K1 cell membranes at 10 uM incubated for 60 mins by TopCount scintillation counting method relative to control.
Chain of Mu-type opioid receptor (Homo sapiens) (P35372 whole entry): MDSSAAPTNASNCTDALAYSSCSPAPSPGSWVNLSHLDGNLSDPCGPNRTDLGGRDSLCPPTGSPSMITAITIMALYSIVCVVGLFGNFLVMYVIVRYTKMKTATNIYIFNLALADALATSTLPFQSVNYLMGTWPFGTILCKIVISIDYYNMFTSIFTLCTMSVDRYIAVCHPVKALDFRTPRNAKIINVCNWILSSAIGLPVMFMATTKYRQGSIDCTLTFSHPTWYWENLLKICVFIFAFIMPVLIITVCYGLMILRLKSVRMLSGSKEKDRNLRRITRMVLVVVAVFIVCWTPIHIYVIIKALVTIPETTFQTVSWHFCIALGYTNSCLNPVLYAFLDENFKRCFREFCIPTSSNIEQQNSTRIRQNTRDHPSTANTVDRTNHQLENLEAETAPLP

The source made the active and inactive calls. No cut-off for these calls is given here.

The text below walks through data of ChEMBL document CHEMBL4819054, “Rotenoids and Other Specialized Metabolites from the Roots of Mirabilis multiflora: Opioid and Cannabinoid Receptor Radioligand Binding Affinities” (J Nat Prod, 2021).

Chain of Delta-type opioid receptor (Homo sapiens) (P41143 whole entry): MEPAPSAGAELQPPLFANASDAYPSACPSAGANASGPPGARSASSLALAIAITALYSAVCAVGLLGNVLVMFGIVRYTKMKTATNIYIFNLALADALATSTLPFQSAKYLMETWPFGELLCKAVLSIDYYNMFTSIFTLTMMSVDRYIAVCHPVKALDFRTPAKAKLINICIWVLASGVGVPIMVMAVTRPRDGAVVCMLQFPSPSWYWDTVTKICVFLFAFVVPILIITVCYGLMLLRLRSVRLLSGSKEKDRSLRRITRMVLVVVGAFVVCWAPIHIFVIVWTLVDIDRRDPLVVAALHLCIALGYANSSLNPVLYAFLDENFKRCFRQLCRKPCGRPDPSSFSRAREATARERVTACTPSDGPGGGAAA

In the case of `COc1c(C)c(O)c2c(c1C)O[C@H]1[C@H](OC)Oc3c(O)cccc3[C@]1(O)C2=O`, the Activity is 31.6% in test [1], 17% in test [3], 41.8% in test [4] and 55.3% in test [5]. Further, the outcome in test [2] was inactive.
With `CO[C@@H]1Oc2ccccc2-c2c1oc1cc(O)c(C)c(O)c1c2=O`, the Activity came to 24.5% in test [1], 48.8% in test [4] and 64.5% in test [5]. Further, the outcome in test [2] and in test [3] was inactive.
With `COc1cc2c(c(O)c1C)C(=O)[C@@]1(O)c3cccc(O)c3O[C@@H](OC)[C@@H]1O2`, the Activity in test [1] amounted to 20.1%; in test [2], 7.4%; in test [3], 42.2%; in test [4], 28.9%; in test [5], 39.6%.
Regarding `COc1c(C)c(O)c2c(c1C)O[C@H]1COc3c(O)cccc3[C@]1(O)C2=O`, the Activity in test [1] was 15.2%; in test [4], 38.9%; in test [5], 45.9%. For the same molecule, the outcome in test [2] and in test [3] was inactive.
Regarding `COc1cc2c(c(O)c1C)C(=O)[C@@]1(O)c3cccc(O)c3OC[C@@H]1O2`, the Activity in test [1] came to 26.3%; in test [4], 21.8%; in test [5] it was 50.9%. The result in test [2] and in test [3] was inactive.
Consider `COc1cc2c(c(O)c1C)C(=O)[C@@]1(O)c3cccc(OC)c3O[C@@H](OC)[C@@H]1O2`, for which the Activity in test [1] amounted to 12.3%; in test [2], 5.4%; in test [4] it was 30.5%; in test [5] it was 58.6%. For the same molecule, the outcome in test [3] was inactive.
